According to patent US20230036051A1, “C[…] STABILITY” (priority 2021, published 2023):

Assay: Storage stability of THC in ground cannabis flower, non-accelerated storage conditions
Assay type: physicochemical
Conditions: loss of THC content; positive control, amount not given
Method: After analyzing initial cannabinoid content, an amount of terpene blend 1 was added to 3.5 (±0.05) g of ground flower (1, 2, or 3%, by weight of the dried cannabis) was applied to the product and stored in an air-tight container protected from light. All experiments were performed in triplicate. The testing conditions included: (1) Non-Accelerated Storage Conditions without exogenous terpenes “Control”; (2) Accelerated Conditions (+3.0% by weight hydrogen peroxide, initially, and refreshed each week) without exogenous terpenes, and (3) Accelerated Conditions with exogenous terpenes “H2O2+Terpene” (Blend 1). (FIG. 2). Butylated hydroxytoluene (BHT), a preservative used in food, known to prevent radical-mediated oxidation was employed as a positive control. Each container was opened twice/week and stirred, simulating usual conditions for access of medicinal cannabis. The cannabinoid content was analyzed after 24 and 81 days of storage.
The stabilizing effect was observed after 81 days (TABLE 2) and also between days 24 and 81 (TABLE 3).

## Cc1cc(C(C)(C)C)c(O)c(C(C)(C)C)c1 [BHT, Butylated hydroxytoluene]
  Relative % Loss 0 to 81 Days: 7.90%
  Relative % Loss 24 to 81 Days: 18.65%
